The test system of one experiment is Mus musculus. Description: Neuroprotective activity in haloperidol-induced catalepsy Mus musculus Swiss albino (mouse) model assessed as mean descent time at 100 mg/kg, po administered 30 min before haloperidol challenge measured at 150 min post challenge. It counts as functional.
Conditions: not given
On to `S=C(Nc1ccc(Br)cc1)Nc1nc2c(ccc3ccccc32)s1`, for which the Time worked out at 223 s.
Take `Cc1ccc(NC(=O)Nc2nc3c(ccc4ccccc43)s2)cc1`: the Time was determined as 168 s.
Turning to `COc1ccc(NC(=O)Nc2nc3c(ccc4ccccc43)s2)cc1`, the Time stood at 136 s.
In the case of `Cc1ccc(NC(=S)Nc2nc3c(ccc4ccccc43)s2)cc1`, the Time came to 173 s.
Take `Fc1ccccc1NC(=S)Nc1nc2c(ccc3ccccc32)s1`: the Time stood at 206 s.
For `O=C(Nc1ccc(Br)cc1)Nc1nc2c(ccc3ccccc32)s1`, the Time came out at 214 s.
For `COc1cc(NC(=O)Nc2nc3c(ccc4ccccc43)s2)cc(OC)c1OC`, the Time worked out at 107 s.
For `S=C(Nc1nc2c(ccc3ccccc32)s1)Nc1ccccc1Br`, the Time stood at 223 s.
Turning to `O=C(Nc1nc2c(ccc3ccccc32)s1)Nc1ccccc1Cl`, the Time is 211 s.
As for `S=C(Nc1nc2c(ccc3ccccc32)s1)Nc1ccccc1Cl`, the Time was 189 s.
Consider `O=C(Nc1ccc([N+](=O)[O-])cc1)Nc1nc2c(ccc3ccccc32)s1`, for which the Time is 245 s.
For `N[C@@H](Cc1ccc(O)c(O)c1)C(=O)O` [LEVODOPA], the Time was found to be 122 s.

The next experiment deals with Mus musculus. Put plainly: Neuroprotective activity in haloperidol-induced catalepsy Mus musculus Swiss albino (mouse) model assessed as mean descent time at 100 mg/kg, po administered 30 min before haloperidol challenge measured at 120 min post challenge.
Conditions: not given
In kind it is functional.
For the molecule `S=C(Nc1ccc(Br)cc1)Nc1nc2c(ccc3ccccc32)s1`, the Time worked out at 222 s.
Consider `Cc1ccc(NC(=O)Nc2nc3c(ccc4ccccc43)s2)cc1`, for which the Time is 161 s.
As to `COc1ccc(NC(=O)Nc2nc3c(ccc4ccccc43)s2)cc1`, the Time is 131 s.
As for `Cc1ccc(NC(=S)Nc2nc3c(ccc4ccccc43)s2)cc1`, the Time is 161 s.
On the same count and under the same terms, for `Fc1ccccc1NC(=S)Nc1nc2c(ccc3ccccc32)s1` the value was 183 s.
Still for that read-out and setting: for `O=C(Nc1ccc(Br)cc1)Nc1nc2c(ccc3ccccc32)s1` the value was 191 s.
In the case of `COc1cc(NC(=O)Nc2nc3c(ccc4ccccc43)s2)cc(OC)c1OC`, the Time turned out to be 89 s.
As to `S=C(Nc1nc2c(ccc3ccccc32)s1)Nc1ccccc1Br`, the Time turned out to be 207 s.
For the molecule `O=C(Nc1nc2c(ccc3ccccc32)s1)Nc1ccccc1Cl`, the Time amounted to 188 s.
As for `S=C(Nc1nc2c(ccc3ccccc32)s1)Nc1ccccc1Cl`, the Time was found to be 190 s.
The same measure, in the same setting: the figure for `O=C(Nc1ccc([N+](=O)[O-])cc1)Nc1nc2c(ccc3ccccc32)s1` is 229 s; for `N[C@@H](Cc1ccc(O)c(O)c1)C(=O)O` [LEVODOPA] it is 119 s.

The subject of another experiment is Mus musculus. Put plainly: Neuroprotective activity in haloperidol-induced catalepsy Mus musculus Swiss albino (mouse) model assessed as mean descent time at 100 mg/kg, po administered 30 min before haloperidol challenge measured at 60 min post challenge. It counts as functional.
Conditions: not given
For `S=C(Nc1ccc(Br)cc1)Nc1nc2c(ccc3ccccc32)s1`, the Time came to 139 s.
Still for that read-out and setting: for `Cc1ccc(NC(=O)Nc2nc3c(ccc4ccccc43)s2)cc1` the value was 113 s.
In the case of `COc1ccc(NC(=O)Nc2nc3c(ccc4ccccc43)s2)cc1`, the Time was 99 s.
For `Cc1ccc(NC(=S)Nc2nc3c(ccc4ccccc43)s2)cc1`, the Time worked out at 114 s.
For the molecule `Fc1ccccc1NC(=S)Nc1nc2c(ccc3ccccc32)s1`, the Time was found to be 143 s.
Take `O=C(Nc1ccc(Br)cc1)Nc1nc2c(ccc3ccccc32)s1`: the Time came out at 123 s.
For `COc1cc(NC(=O)Nc2nc3c(ccc4ccccc43)s2)cc(OC)c1OC`, the Time was 68 s.
Consider `S=C(Nc1nc2c(ccc3ccccc32)s1)Nc1ccccc1Br`, for which the Time was 160 s.
On the same count and under the same terms, the figure for `O=C(Nc1nc2c(ccc3ccccc32)s1)Nc1ccccc1Cl` is 141 s; for `S=C(Nc1nc2c(ccc3ccccc32)s1)Nc1ccccc1Cl` it is 156 s; for `O=C(Nc1ccc([N+](=O)[O-])cc1)Nc1nc2c(ccc3ccccc32)s1` it is 113 s.
Take `N[C@@H](Cc1ccc(O)c(O)c1)C(=O)O` [LEVODOPA]: the Time came to 49 s.

The next experiment relates to Mus musculus. Description: Neuroprotective activity in haloperidol-induced catalepsy Mus musculus Swiss albino (mouse) model assessed as mean descent time at 100 mg/kg, po administered 30 min before haloperidol challenge measured at 180 min post challenge. In kind it is functional.
Conditions: not given
As to `S=C(Nc1ccc(Br)cc1)Nc1nc2c(ccc3ccccc32)s1`, the Time is 220 s.
The same measure, in the same setting: the figure for `Cc1ccc(NC(=O)Nc2nc3c(ccc4ccccc43)s2)cc1` is 171 s.
With `COc1ccc(NC(=O)Nc2nc3c(ccc4ccccc43)s2)cc1`, the Time amounted to 138 s.
On the same count and under the same terms, for `Cc1ccc(NC(=S)Nc2nc3c(ccc4ccccc43)s2)cc1` the value was 172 s; for `Fc1ccccc1NC(=S)Nc1nc2c(ccc3ccccc32)s1`, 234 s.
For the molecule `O=C(Nc1ccc(Br)cc1)Nc1nc2c(ccc3ccccc32)s1`, the Time came out at 218 s.
On the same count and under the same terms, for `COc1cc(NC(=O)Nc2nc3c(ccc4ccccc43)s2)cc(OC)c1OC` the value was 109 s; for `S=C(Nc1nc2c(ccc3ccccc32)s1)Nc1ccccc1Br`, 226 s; for `O=C(Nc1nc2c(ccc3ccccc32)s1)Nc1ccccc1Cl`, 232 s.
As for `S=C(Nc1nc2c(ccc3ccccc32)s1)Nc1ccccc1Cl`, the Time came out at 186 s.
Consider `O=C(Nc1ccc([N+](=O)[O-])cc1)Nc1nc2c(ccc3ccccc32)s1`, for which the Time came to 269 s.
For `N[C@@H](Cc1ccc(O)c(O)c1)C(=O)O` [LEVODOPA], the Time turned out to be 137 s.

The next experiment has as its system Mus musculus. Put plainly: Neuroprotective activity in haloperidol-induced catalepsy Mus musculus Swiss albino (mouse) model assessed as mean descent time at 100 mg/kg, po administered 30 min before haloperidol challenge measured at 30 min post challenge. In kind it is functional.
Conditions: not given
Take `S=C(Nc1ccc(Br)cc1)Nc1nc2c(ccc3ccccc32)s1`: the Time is 57 s.
On to `Cc1ccc(NC(=O)Nc2nc3c(ccc4ccccc43)s2)cc1`, for which the Time stood at 69 s.
Still for that read-out and setting: the figure for `COc1ccc(NC(=O)Nc2nc3c(ccc4ccccc43)s2)cc1` is 41 s; for `Cc1ccc(NC(=S)Nc2nc3c(ccc4ccccc43)s2)cc1` it is 72 s; for `Fc1ccccc1NC(=S)Nc1nc2c(ccc3ccccc32)s1` it is 57 s.
On the same count and under the same terms, the figure for `O=C(Nc1ccc(Br)cc1)Nc1nc2c(ccc3ccccc32)s1` is 82 s; for `COc1cc(NC(=O)Nc2nc3c(ccc4ccccc43)s2)cc(OC)c1OC` it is 29 s; for `S=C(Nc1nc2c(ccc3ccccc32)s1)Nc1ccccc1Br` it is 83 s.
`O=C(Nc1nc2c(ccc3ccccc32)s1)Nc1ccccc1Cl`: the Time came out at 59 s.
On to `S=C(Nc1nc2c(ccc3ccccc32)s1)Nc1ccccc1Cl`, for which the Time was found to be 69 s.
Take `O=C(Nc1ccc([N+](=O)[O-])cc1)Nc1nc2c(ccc3ccccc32)s1`: the Time is 51 s.
As to `N[C@@H](Cc1ccc(O)c(O)c1)C(=O)O` [LEVODOPA], the Time stood at 32 s.

The next experiment relates to Mus musculus. Description: Neuroprotective activity in Mus musculus Swiss albino (mouse) model assessed as reduction in haloperidol-induced catalepsy at 100 mg/kg, ip administered 30 min before haloperidol challenge measured for 30 to 180 min. In kind it is functional. Set-up: scale not given: the % may be the effect or the level left. Conditions: route intraperitoneal.
Turning to `S=C(Nc1ccc(Br)cc1)Nc1nc2c(ccc3ccccc32)s1`, the Activity stood at 35.27%.
With `Cc1ccc(NC(=O)Nc2nc3c(ccc4ccccc43)s2)cc1`, the Activity came to 48.56%.
As for `COc1ccc(NC(=O)Nc2nc3c(ccc4ccccc43)s2)cc1`, the Activity is recorded as 58.51%.
With `Cc1ccc(NC(=S)Nc2nc3c(ccc4ccccc43)s2)cc1`, the Activity is on record as 47.97%.
The same measure, in the same setting: the figure for `Fc1ccccc1NC(=S)Nc1nc2c(ccc3ccccc32)s1` is 38.35%; for `O=C(Nc1ccc(Br)cc1)Nc1nc2c(ccc3ccccc32)s1` it is 37.76%; for `COc1cc(NC(=O)Nc2nc3c(ccc4ccccc43)s2)cc(OC)c1OC` it is 70.29%.
Take `S=C(Nc1nc2c(ccc3ccccc32)s1)Nc1ccccc1Br`: the Activity was 30.96%.
`O=C(Nc1nc2c(ccc3ccccc32)s1)Nc1ccccc1Cl`: the Activity is reported as 37.37%.
With `S=C(Nc1nc2c(ccc3ccccc32)s1)Nc1ccccc1Cl`, the Activity stood at 39.14%.
Consider `O=C(Nc1ccc([N+](=O)[O-])cc1)Nc1nc2c(ccc3ccccc32)s1`, for which the Activity was 31.28%.
With `N[C@@H](Cc1ccc(O)c(O)c1)C(=O)O` [LEVODOPA], the Activity is reported as 65.64%.

Another experiment concerns Mus musculus. Put plainly: Neuroprotective activity in haloperidol-induced catalepsy Mus musculus Swiss albino (mouse) model assessed as mean descent time at 100 mg/kg, po administered 30 min before haloperidol challenge measured at 90 min post challenge. In kind it is functional.
Conditions: not given
Take `S=C(Nc1ccc(Br)cc1)Nc1nc2c(ccc3ccccc32)s1`: the Time stood at 161 s.
Turning to `Cc1ccc(NC(=O)Nc2nc3c(ccc4ccccc43)s2)cc1`, the Time came to 137 s.
Consider `COc1ccc(NC(=O)Nc2nc3c(ccc4ccccc43)s2)cc1`, for which the Time is 122 s.
Take `Cc1ccc(NC(=S)Nc2nc3c(ccc4ccccc43)s2)cc1`: the Time turned out to be 136 s.
For `Fc1ccccc1NC(=S)Nc1nc2c(ccc3ccccc32)s1`, the Time is 152 s.
On to `O=C(Nc1ccc(Br)cc1)Nc1nc2c(ccc3ccccc32)s1`, for which the Time came to 156 s.
`COc1cc(NC(=O)Nc2nc3c(ccc4ccccc43)s2)cc(OC)c1OC`: the Time came out at 85 s.
With `S=C(Nc1nc2c(ccc3ccccc32)s1)Nc1ccccc1Br`, the Time was determined as 189 s.
On to `O=C(Nc1nc2c(ccc3ccccc32)s1)Nc1ccccc1Cl`, for which the Time worked out at 159 s.
On the same count and under the same terms, the figure for `S=C(Nc1nc2c(ccc3ccccc32)s1)Nc1ccccc1Cl` is 173 s.
Still for that read-out and setting: for `O=C(Nc1ccc([N+](=O)[O-])cc1)Nc1nc2c(ccc3ccccc32)s1` the value was 176 s.
As for `N[C@@H](Cc1ccc(O)c(O)c1)C(=O)O` [LEVODOPA], the Time was 99 s.

In a further experiment the test system is Mus musculus. Put plainly: Neuroprotective activity in haloperidol-induced catalepsy Mus musculus Swiss albino (mouse) model assessed as mean cumulative descent time at 100 mg/kg, po administered 30 min before haloperidol challenge (reference value: 33 +/- 1.34 min). It counts as functional.
Conditions: not given
Consider `S=C(Nc1ccc(Br)cc1)Nc1nc2c(ccc3ccccc32)s1`, for which the Time was found to be 17 min.
On the same count and under the same terms, for `Cc1ccc(NC(=O)Nc2nc3c(ccc4ccccc43)s2)cc1` the value was 13.7 min; for `COc1ccc(NC(=O)Nc2nc3c(ccc4ccccc43)s2)cc1`, 11.1 min.
Take `Cc1ccc(NC(=S)Nc2nc3c(ccc4ccccc43)s2)cc1`: the Time is 13.8 min.
On to `Fc1ccccc1NC(=S)Nc1nc2c(ccc3ccccc32)s1`, for which the Time amounted to 16.2 min.
Still for that read-out and setting: the figure for `O=C(Nc1ccc(Br)cc1)Nc1nc2c(ccc3ccccc32)s1` is 16.4 min; for `COc1cc(NC(=O)Nc2nc3c(ccc4ccccc43)s2)cc(OC)c1OC` it is 8.12 min; for `S=C(Nc1nc2c(ccc3ccccc32)s1)Nc1ccccc1Br` it is 18.1 min.
As to `O=C(Nc1nc2c(ccc3ccccc32)s1)Nc1ccccc1Cl`, the Time was found to be 16.5 min.
Consider `S=C(Nc1nc2c(ccc3ccccc32)s1)Nc1ccccc1Cl`, for which the Time is 16.1 min.
Take `O=C(Nc1ccc([N+](=O)[O-])cc1)Nc1nc2c(ccc3ccccc32)s1`: the Time is 18.1 min.
Consider `N[C@@H](Cc1ccc(O)c(O)c1)C(=O)O` [LEVODOPA], for which the Time was found to be 9.3 min.

Values taken from ChEMBL document CHEMBL3045060, “Synthesis of some urea and thiourea derivatives of naphtha[1,2-d]thiazol-2-amine as anti-Parkinsonian agents that cause neuroprotection against haloperidol-induced oxidative stress in mice” (2009).
